What all share (assay type): cell-based
For assay [1], the target named is human α1G T-type channels (Homo sapiens, UniProt O43497). As to the kind of experiment: T-type calcium channel block, whole cell patch clamp, α1G. The following applies: HEK cells stably expressing human α1G; mainly non-inactivated protocol; values above 10,000 nM represented as 10000. An outline of the steps:
(§1)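 Read-out: current block in whole-cell patch clamp of HEK 293 cells stably expressing human α1G or α1H subunits. Compounds were perfused locally in external solution (0.1-0.01% DMSO) under resting and inactivating voltage protocols.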
A general note: Patch clamp records ionic current or voltage across a cell membrane.

Assay [2] has as its target human α1H T-type channels (Homo sapiens, UniProt O95180). As to the kind of experiment: T-type calcium channel block, whole cell patch clamp, α1H. The note with it: HEK cells stably expressing human α1H; mainly non-inactivated protocol; values above 10,000 nM represented as 10000. Summed up: as §1
Assay [3] concerns the target N-type calcium channel subunits (α1B, α2δ, and β3a) (Homo sapiens, UniProt Q00975). The assay can be described thus: Block of Cav2.2 channel, whole cell voltage clamp, manual and PatchXpress. The following applies: Table 5; table follows Assay Example 3 (whole cell voltage clamp / PatchXpress); assay not given. Summed up: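 Percent block taken as current amplitude ratio with versus without compound, applied in rising doses; IC50 fitted where one cell received multiple doses. Protocol: 50 ms pulses to +20 mV at 0.067 Hz from […] or −90 mV holding; P/n leak subtraction, no junction-potential correction; manual and PatchXpress recordings.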

24 compounds from patent US20120245137A1 (Zalicus Pharmaceuticals Ltd., priority 2009, published 2012) can be followed below.

A word on the IC50: it is the concentration that gives 50% inhibition.

Some results are limits rather than exact numbers.

Chain of human α1H T-type channels (O95180 whole entry): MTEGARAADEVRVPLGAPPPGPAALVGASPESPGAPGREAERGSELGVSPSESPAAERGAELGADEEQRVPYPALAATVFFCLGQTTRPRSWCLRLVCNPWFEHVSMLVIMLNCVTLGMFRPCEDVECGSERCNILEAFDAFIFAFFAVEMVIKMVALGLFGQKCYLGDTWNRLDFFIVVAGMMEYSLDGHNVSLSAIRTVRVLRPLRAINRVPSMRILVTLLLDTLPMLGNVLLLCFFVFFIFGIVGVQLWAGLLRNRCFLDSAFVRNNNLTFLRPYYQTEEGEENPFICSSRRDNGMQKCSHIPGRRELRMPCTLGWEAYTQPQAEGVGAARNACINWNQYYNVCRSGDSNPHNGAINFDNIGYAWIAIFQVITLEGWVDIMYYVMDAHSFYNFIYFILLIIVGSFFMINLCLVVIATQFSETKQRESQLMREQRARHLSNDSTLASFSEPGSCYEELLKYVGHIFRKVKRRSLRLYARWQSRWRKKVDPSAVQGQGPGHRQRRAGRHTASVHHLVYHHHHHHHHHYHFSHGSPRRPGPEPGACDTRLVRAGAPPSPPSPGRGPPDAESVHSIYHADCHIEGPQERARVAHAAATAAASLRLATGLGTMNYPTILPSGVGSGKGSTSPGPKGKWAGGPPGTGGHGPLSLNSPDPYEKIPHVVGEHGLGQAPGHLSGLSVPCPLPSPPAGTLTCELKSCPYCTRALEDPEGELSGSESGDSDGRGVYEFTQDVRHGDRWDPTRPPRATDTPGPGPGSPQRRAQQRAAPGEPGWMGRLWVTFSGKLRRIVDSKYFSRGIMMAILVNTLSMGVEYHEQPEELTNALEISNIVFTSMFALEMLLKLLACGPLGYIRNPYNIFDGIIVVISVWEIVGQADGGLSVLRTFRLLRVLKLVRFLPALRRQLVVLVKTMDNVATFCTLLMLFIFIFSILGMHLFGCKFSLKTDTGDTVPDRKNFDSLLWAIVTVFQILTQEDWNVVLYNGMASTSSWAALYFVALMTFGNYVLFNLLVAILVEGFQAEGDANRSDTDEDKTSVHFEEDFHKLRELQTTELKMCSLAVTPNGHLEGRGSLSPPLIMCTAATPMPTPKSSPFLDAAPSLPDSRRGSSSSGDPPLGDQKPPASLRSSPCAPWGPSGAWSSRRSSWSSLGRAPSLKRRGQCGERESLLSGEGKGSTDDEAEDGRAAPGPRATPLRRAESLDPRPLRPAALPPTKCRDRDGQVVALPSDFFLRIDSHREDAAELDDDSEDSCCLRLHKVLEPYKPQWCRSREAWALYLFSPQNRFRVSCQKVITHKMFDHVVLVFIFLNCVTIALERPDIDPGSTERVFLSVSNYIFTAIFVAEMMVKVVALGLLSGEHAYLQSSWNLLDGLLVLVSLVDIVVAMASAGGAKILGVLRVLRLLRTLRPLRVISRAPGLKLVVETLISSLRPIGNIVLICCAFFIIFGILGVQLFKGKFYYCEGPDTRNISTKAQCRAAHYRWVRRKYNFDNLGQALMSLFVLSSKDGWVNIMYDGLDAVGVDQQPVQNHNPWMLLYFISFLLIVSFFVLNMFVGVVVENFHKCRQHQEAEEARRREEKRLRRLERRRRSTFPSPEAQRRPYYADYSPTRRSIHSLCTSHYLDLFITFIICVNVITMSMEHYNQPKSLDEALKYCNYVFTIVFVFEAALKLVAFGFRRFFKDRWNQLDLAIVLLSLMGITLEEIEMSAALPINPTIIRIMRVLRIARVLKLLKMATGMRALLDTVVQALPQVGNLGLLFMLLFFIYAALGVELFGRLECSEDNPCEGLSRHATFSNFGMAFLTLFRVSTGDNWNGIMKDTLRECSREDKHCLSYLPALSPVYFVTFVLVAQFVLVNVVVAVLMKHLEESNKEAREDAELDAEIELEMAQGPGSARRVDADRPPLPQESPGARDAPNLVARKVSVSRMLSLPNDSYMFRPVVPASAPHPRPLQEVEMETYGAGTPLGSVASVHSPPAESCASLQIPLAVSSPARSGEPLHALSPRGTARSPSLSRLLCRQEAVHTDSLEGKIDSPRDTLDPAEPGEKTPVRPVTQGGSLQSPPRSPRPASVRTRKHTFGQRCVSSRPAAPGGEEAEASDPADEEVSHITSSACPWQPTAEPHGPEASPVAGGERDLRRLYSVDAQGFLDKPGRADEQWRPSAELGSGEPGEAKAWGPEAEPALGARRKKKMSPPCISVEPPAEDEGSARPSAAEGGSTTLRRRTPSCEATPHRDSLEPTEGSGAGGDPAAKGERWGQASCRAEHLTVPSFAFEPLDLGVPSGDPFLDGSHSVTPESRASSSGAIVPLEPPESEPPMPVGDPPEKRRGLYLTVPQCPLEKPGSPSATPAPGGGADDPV
Chain of human α1G T-type channels (O43497 whole entry, the tested form may be a part): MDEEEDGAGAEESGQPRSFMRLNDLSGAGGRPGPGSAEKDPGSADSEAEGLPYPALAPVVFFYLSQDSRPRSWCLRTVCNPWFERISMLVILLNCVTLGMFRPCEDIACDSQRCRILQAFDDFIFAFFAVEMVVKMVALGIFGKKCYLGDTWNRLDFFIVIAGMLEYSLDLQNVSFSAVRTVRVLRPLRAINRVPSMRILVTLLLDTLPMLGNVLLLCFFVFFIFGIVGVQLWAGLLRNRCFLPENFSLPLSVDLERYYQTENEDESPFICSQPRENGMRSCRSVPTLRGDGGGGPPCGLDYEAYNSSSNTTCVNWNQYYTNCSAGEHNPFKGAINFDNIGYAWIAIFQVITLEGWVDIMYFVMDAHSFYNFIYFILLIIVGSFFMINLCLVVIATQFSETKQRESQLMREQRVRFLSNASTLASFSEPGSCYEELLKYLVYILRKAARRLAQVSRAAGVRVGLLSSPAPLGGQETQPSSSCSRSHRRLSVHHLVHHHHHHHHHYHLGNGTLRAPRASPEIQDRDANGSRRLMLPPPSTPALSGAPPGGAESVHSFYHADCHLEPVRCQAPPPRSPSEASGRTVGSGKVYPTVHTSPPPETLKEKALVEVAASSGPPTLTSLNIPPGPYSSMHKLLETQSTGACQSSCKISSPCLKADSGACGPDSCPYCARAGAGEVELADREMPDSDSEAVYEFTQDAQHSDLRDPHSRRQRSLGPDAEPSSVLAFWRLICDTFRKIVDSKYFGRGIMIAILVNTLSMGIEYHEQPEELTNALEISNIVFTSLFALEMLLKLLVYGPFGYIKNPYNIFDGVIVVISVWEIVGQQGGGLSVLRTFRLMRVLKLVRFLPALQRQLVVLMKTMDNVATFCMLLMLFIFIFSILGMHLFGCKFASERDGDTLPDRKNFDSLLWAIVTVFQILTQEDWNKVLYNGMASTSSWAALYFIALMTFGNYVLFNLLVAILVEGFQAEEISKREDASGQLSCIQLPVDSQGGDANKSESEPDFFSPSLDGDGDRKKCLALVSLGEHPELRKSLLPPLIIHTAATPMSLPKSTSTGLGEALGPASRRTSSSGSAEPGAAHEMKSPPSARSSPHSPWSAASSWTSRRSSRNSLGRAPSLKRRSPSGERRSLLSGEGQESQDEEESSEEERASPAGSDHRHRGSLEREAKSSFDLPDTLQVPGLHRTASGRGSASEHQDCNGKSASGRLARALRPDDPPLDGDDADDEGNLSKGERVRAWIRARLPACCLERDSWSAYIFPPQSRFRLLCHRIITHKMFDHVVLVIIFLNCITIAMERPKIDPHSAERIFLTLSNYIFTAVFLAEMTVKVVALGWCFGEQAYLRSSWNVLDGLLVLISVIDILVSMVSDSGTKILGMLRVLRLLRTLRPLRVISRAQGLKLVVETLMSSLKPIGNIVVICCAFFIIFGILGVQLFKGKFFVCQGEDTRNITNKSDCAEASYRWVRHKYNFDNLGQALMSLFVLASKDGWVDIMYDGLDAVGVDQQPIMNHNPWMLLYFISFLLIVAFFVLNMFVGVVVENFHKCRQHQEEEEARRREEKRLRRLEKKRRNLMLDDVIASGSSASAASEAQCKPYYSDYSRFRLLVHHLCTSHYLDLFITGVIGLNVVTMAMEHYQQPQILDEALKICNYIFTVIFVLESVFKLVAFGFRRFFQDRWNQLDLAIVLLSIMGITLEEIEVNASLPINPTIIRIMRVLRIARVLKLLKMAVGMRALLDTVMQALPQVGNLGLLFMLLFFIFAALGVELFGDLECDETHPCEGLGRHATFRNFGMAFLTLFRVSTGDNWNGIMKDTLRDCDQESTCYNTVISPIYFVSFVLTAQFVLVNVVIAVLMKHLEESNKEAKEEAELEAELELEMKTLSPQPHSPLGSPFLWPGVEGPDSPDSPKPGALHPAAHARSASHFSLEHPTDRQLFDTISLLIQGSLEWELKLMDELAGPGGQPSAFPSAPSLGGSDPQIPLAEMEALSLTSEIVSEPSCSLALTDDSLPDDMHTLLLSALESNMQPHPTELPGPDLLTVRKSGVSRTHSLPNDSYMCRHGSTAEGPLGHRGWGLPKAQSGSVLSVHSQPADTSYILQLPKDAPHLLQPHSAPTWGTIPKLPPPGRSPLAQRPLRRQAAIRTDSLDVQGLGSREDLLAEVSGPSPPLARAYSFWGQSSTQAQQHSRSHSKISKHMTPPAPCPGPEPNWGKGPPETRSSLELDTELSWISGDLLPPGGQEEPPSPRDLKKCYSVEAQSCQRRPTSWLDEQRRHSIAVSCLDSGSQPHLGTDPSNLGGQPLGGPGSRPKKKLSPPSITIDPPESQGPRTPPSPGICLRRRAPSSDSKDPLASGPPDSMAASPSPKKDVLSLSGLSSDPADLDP

Regarding `O=C(N[C@H]1CC[C@@](F)(S(=O)(=O)c2cccc(OC(F)(F)F)c2)CC1)c1ccnn1CC(F)(F)F` [Compound 253], the IC50 is 1.19 µM in assay [1], 460 nM in assay [2] and 320 nM in assay [3].

Turning to `O=C(CCC(F)(F)F)N[C@H]1CC[C@@](F)(S(=O)(=O)c2cccc(C(F)(F)F)c2)CC1` [Compound 274, 4,4,4-trifluoro-N-((1S,4S)-4-fluoro-4-(3-(trifluoromethyl)phenylsulfonyl)cyclohexyl)butanamide], the values for the IC50 in assay [1], in assay [2] and in assay [3] were 2.54 µM, 1050 nM and 530 nM, respectively.

Regarding `CC1(NC(=O)c2ccc(F)c(Cl)c2)CCC(S(=O)(=O)c2cccc(C(F)(F)F)c2)CC1` (stereo not drawn) [Compound 310, 3-chloro-4-fluoro-N-(1-methyl-4-(3-(trifluoromethyl)phenylsulfonyl)cyclohexyl) benzamide], the IC50 in assay [1] was determined as 6.34 µM; in assay [2], 5710 nM; in assay [3], 1160 nM.

`COc1cc(F)cc(C(=O)N[C@H]2CC[C@](F)(S(=O)(=O)c3cccc(C(F)(F)F)c3)CC2)c1` [Compound 82, 3-fluoro-N-((1R,4R)-4-fluoro-4-(3-(trifluoromethyl)phenylsulfonyl)cyclohexyl)-5-methoxybenzamide]: the IC50 in assay [1] was 7.49 µM; in assay [2], 1810 nM; in assay [3] it was 3000 nM.

For `CC(C)S(=O)(=O)c1cc(C(F)(F)F)cnc1C(=O)N[C@H]1CC[C@@](F)(S(=O)(=O)c2cccc(C(F)(F)F)c2)CC1` [Compound 281, N-((1S,4S)-4-fluoro-4-(3-(trifluoromethyl)phenylsulfonyl)cyclohexyl)-3-(isopropylsulfonyl)-5-(trifluoromethyl)picolinamide], the IC50 in assay [1] was 8.53 µM; in assay [2] it was 1460 nM; in assay [3], 30 nM.

Turning to `CC(C)(N)CN(C(=O)C(F)(F)F)[C@H]1CC[C@@](F)(S(=O)(=O)c2cccc(C(F)(F)F)c2)CC1` [Compound 306, N-(2-amino-2-methylpropyl)-2,2,2-trifluoro-N-((1S,4S)-4-tluoro-4-(3-(trifIuoromethyl)phenylsulfonyl)cyclohexyl) acetamide], the IC50 in assay [1] is 4.96 µM; in assay [2], 7350 nM; in assay [3], 530 nM.

As to `O=C(N[C@H]1CC[C@@H](S(=O)(=O)c2cc(F)cc(C(F)(F)F)c2)CC1)c1ccc(F)c(C(F)(F)F)c1` [Compound 319, 4-fluoro-N-((1S,4S)-4-(3-fluoro-5-(trifluoromethyl)phenylsulfonyl)cyclohexyl)-3-(trifluoromethyl)benzamide], the IC50 in assay [1] is 4.82 µM; in assay [2], 3430 nM; in assay [3], 260 nM.

As for `O=C(CNCC1CC(S(=O)(=O)c2cccc(C(F)(F)F)c2)C1)NC1CCCCC1` (stereo not drawn) [Compound 97, N-cyclohexyl-2-((3-(3-(trifluoromethyl)phenylsulfonyl)cyclobutyl)methylamino)acetamide], the figures for the IC50 in assay [1], in assay [2] and in assay [3] were 2.14 µM, over 10000 nM and 490 nM, respectively.

Consider `COc1cc(F)cc(C(=O)NC[C@H]2CC[C@@H](S(=O)(=O)c3cccc(C(F)(F)F)c3)CC2)c1` [Compound 30, 3-fluoro-5-methoxy-N-(((1S,4S)-4-(3-(trifluoromethyl)phenylsulfonyl)cyclohexyl)methyl)benzamide], for which the IC50 in assay [1] turned out to be 1.29 µM; in assay [2], 1410 nM; in assay [3] it was 720 nM.

Turning to `O=C(N[C@H]1CC[C@@](F)(S(=O)(=O)c2cccc(C(F)(F)F)c2)CC1)c1nc2cc(C(F)(F)F)ccc2[nH]1` [Compound 85, N-((1S,4S)-4-fluoro-4-(3-(trifluoromethyl)phenylsulfonyl)cyclohexyl)-5-(trifluoromethyl)-1H-benzo[d]imidazole-2-carboxamide], the figures for the IC50 in assay [1], in assay [2] and in assay [3] were 2.15 µM, 1230 nM and 850 nM, respectively.

As for `O=C(Nc1cccc(C(F)(F)F)n1)[C@H]1C[C@H](S(=O)(=O)c2cccc(C(F)(F)F)c2)C1` [Compound 411, (1R,3R)-3-(3-(trifluoromethyl)phenylsulfonyl)-N-(6-(trifluoromethyl)pyridin-2-yl)cyclobutanecarboxamide], the IC50 in assay [1] is over 10 µM; in assay [2] it was 2430 nM; in assay [3], 1020 nM.

Take `CN(C(=O)CN[C@H]1CC[C@@](F)(S(=O)(=O)c2cccc(C(F)(F)F)c2)CC1)C(C)(C)C` [Compound 88, N-tert-butyl-2-((1S,4S)-4-fluoro-4-(3-(trifluoromethyl)phenylsulfonyl)cyclohexylamino)-N-methylacetamide]: the 50% inhibitory concentration (IC50) in assay [1] is over 10 µM; in assay [2], 3030 nM; in assay [3], 70 nM.

Consider `CC(C)(C)NC(=O)CNC1CCC(C)(S(=O)(=O)c2cccc(C(F)(F)F)c2)CC1` (stereo not drawn) [Compound 15, N-tert-butyl-2-(4-methyl-4-(3-(trifluoromethyl)phenylsulfonyl)cyclohexylamino)acetamide], for which the IC50 in assay [1] is over 10 µM; in assay [2], 4620 nM; in assay [3] it was 50 nM.

As to `CN(C(=O)c1ccc(C(F)(F)F)cc1S(C)(=O)=O)[C@H]1CC[C@@](F)(S(=O)(=O)c2cc(F)cc(C(F)(F)F)c2)CC1` [Compound 336, N-((1S,4S)-4-fluoro-4-(3-fluoro-5-(trifluoromethyl)phenylsulfonyl)cyclohexyl)-N-methyl-2-(methylsulfonyl)-4-(trifluoromethyl)benzamide], the IC50 in assay [1] was found to be 0.69 µM; in assay [2], 1350 nM; in assay [3], 1060 nM.

With `Cn1cnc(S(=O)(=O)N[C@H]2CC[C@@](F)(S(=O)(=O)c3cccc(C(F)(F)F)c3)CC2)c1` [Compound 296, N-((1S,4S)-4-fluoro-4-(3-(trifluoromethyl)phenylsulfonyl)cyclohexyl)-1-methyl-1H-imidazole-4-sulfonamide], the IC50 in assay [1] was 2.83 µM; in assay [2], 850 nM; in assay [3] it was 4230 nM.

`CC1(NC(=O)CN[C@H]2CC[C@](F)(S(=O)(=O)c3cccc(C(F)(F)F)c3)CC2)CCC1` [Compound 91, 2-((1R,4R)-4-fluoro-4-(3-(trifluoromethyl)phenylsulfonyl)cyclohexylamino)-N-(1-methylcyclobutyl)acetamide]: the IC50 stood at 2.45 µM in assay [1], 940 nM in assay [2] and 410 nM in assay [3].

For `O=C(N[C@H]1CC[C@H](S(=O)(=O)c2cccc(C(F)(F)F)c2)CC1)c1ccc(Cl)c(C(F)(F)F)c1` [Compound 125, 4-chloro-3-(trifluoromethyl)-N-((1R,4R)-4-(3-(trifluoromethyl)phenylsulfonyl)cyclohexyl)benzamide], the IC50 was determined as 2.91 µM in assay [1], 2970 nM in assay [2] and 900 nM in assay [3].

Regarding `O=C(N[C@H]1CC[C@@](F)(S(=O)(=O)c2cccc(C(F)(F)F)c2)CC1)c1ccc(Cl)c(Cl)c1` [Compound 269, 3,4-dichloro-N-((1S,4S)-4-fluoro-4-(3-(trifluoromethyl)phenylsulfonyl)cyclohexyl)benzamide], the IC50 in assay [1] was over 10 µM; in assay [2], over 10000 nM; in assay [3], 190 nM.

As for `CC1(CNCC(=O)NC(C)(C)C)CCC(F)(S(=O)(=O)c2cccc(C(F)(F)F)c2)CC1` (stereo not drawn) [Compound 159, N-tert-butyl-2-((4-fluoro-1-methyl-4-(3-(trifluoromethyl)phenylsulfonyl)cyclohexyl)methylamino)acetamide], the IC50 in assay [1] was over 10 µM; in assay [2] it was over 10000 nM; in assay [3] it was 460 nM.

As to `O=C(N[C@H]1CC[C@@H](CS(=O)(=O)c2cccc(C(F)(F)F)c2)CC1)c1ccc(Cl)c(F)c1` [Compound 141, 4-chloro-3-fluoro-N-((1S,4S)-4-((3-(trifluoromethyl)phenylsulfonyl)methyl)cyclohexyl)benzamide], the IC50 in assay [1] was determined as 4.25 µM; in assay [2] it was 3610 nM; in assay [3], 600 nM.

As to `O=C(N[C@H]1CC[C@@](F)(S(=O)(=O)c2cc(F)cc(C(F)(F)F)c2)CC1)c1cc(C(F)(F)F)n[nH]1` [Compound 324, N-((1S,4S)-4-fluoro-4-(3-fluoro-5-(trifluoromethyl)phenylsulfonyl)cyclohexyl)-3-(trifluoromethyl)-1H-pyrazole-5-carboxamide], the IC50 in assay [1] worked out at 3.18 µM; in assay [2], 1220 nM; in assay [3], 1060 nM.

Consider `CC(C)(C)NC(=O)CN[C@H]1CC[C@H](S(=O)(=O)c2cccc(C(F)(F)F)c2)CC1` [Compound 69, N-tert-butyl-2-((1R,4R)-4-(3-(trifluoromethyl)phenylsulfonyl)cyclohexylamino)acetamide], for which the IC50 was over 10 µM in assay [1], over 10000 nM in assay [2] and 1650 nM in assay [3].

For `O=C(N[C@H]1C[C@H](CS(=O)(=O)c2cccc(C(F)(F)F)c2)C1)c1cc(F)cc(Cl)c1` [Compound 344, 3-chloro-5-fluoro-N-((1R,3R)-3-((3-(trifluoromethyl)phenylsulfonyl)methyl)cyclobutyl)benzamide], the IC50 in assay [1] is over 10 µM; in assay [2], over 10000 nM; in assay [3], 680 nM.

Consider `CC1(NC(=O)c2ncc(C(F)(F)F)cc2S(C)(=O)=O)CCC(S(=O)(=O)c2cccc(C(F)(F)F)c2)CC1` (stereo not drawn) [Compound 317, N-(1-methyl-4-(3-(trifluoromethyl)phenylsulfonyl)cyclohexyl)-3-(methylsulfonyl)-5-(trifluoromethyl)picolinamide], for which the IC50 in assay [1] is 1.14 µM; in assay [2], 860 nM; in assay [3] it was 2690 nM.
